Experimental findings from PubChem BioAssay (NCI) are described below.

Some test systems named below: 786-0 renal; SK-MEL-28 melanoma; HCT-116 colon; SF-268 CNS; A549 NSCLC; IGROV1 ovarian; SK-MEL-5 melanoma; SR leukemia; OVCAR-4 ovarian; MALME-3M melanoma.
Experiment in all cases: NCI anticancer screen, dose series, 48 h

Values joined by “and” are separate entries in the source; they are usually repeats but may differ in a detail not shown here. Identical values can stand only once.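 Grown in 96-well plates, cells were treated for 48 hours with each compound at five concentrations. Insufficient inhibition: endpoint recorded as highest concentration tested. GI50: concentration for 50% inhibition of growth. The concentration for full growth arrest is given as TGI.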 A value given as a limit tells only on which side of the number the result lay.

Take `C[C@]12CC[C@H](OCCC#N)CC1=CC[C@@H]1C2CC[C@]2(C)/C(=N/OCCC#N)CCC12` (some centres undefined): the TGI with 786-0 renal was greater than 76600 nM; in the assay on SK-MEL-28 melanoma it was greater than 100000 nM; in the assay on HCT-116 colon, greater than 100000 nM; in the assay with SF-268 CNS, greater than 100000 nM; with A549 NSCLC it was greater than 100000 nM; in the assay on IGROV1 ovarian, greater than 100000 nM. Besides, the TGI is greater than 100000 nM in the assay on SK-MEL-5 melanoma, greater than 100000 nM in the assay with SR leukemia, 97700 nM in the assay on OVCAR-4 ovarian and greater than 100000 nM with MALME-3M melanoma.
With `CCOC(=O)NC(=O)c1cn(CCCOC(=O)CCCCCCCCCCC(=O)OCCCn2cc(C(=O)NC(=O)OCC)c(=O)n(C)c2=O)c(=O)n(C)c1=O`, the TGI in the assay on 786-0 renal, in the assay on SK-MEL-28 melanoma, in the assay with HCT-116 colon, with SF-268 CNS, with A549 NSCLC and in the assay with IGROV1 ovarian was greater than 100000 nM throughout. Also, the TGI in the assay with SK-MEL-5 melanoma, in the assay on SR leukemia, with OVCAR-4 ovarian and in the assay with MALME-3M melanoma was greater than 100000 nM in each case.
Consider `CN(C)C1CCN(C(=O)c2ccc(NC(=O)Nc3ccc(-c4nc(N5CCOCC5)nc(N5CCOCC5)n4)cc3)cc2)CC1`, for which the GI50 in the assay on 786-0 renal is 237 nM and 136 nM and 571 nM; in the assay on SK-MEL-28 melanoma, 23.1 nM and 39.2 nM and 15.9 nM; with HCT-116 colon it was 28.9 nM and 44.1 nM and 35.9 nM; in the assay on SF-268 CNS, 22.9 nM and 20.7 nM and 43.4 nM; in the assay with A549 NSCLC, 13.2 nM and 18.3 nM and 41.7 nM; with IGROV1 ovarian, < 10 nM and 7.88 nM and 10.3 nM. Further, the GI50 with SK-MEL-5 melanoma was 61.3 nM and 548 nM; in the assay on SR leukemia it was 66.6 nM and 12.3 nM; in the assay with OVCAR-4 ovarian, < 10 nM and 7.76 nM and 12.7 nM; in the assay with MALME-3M melanoma, 13.8 nM and 38.2 nM and 8.99 nM. Moreover, the TGI is 2820 nM and 2500 nM and 8530 nM in the assay on 786-0 renal; 245 nM and 248 nM and 144 nM with SK-MEL-28 melanoma; 5910 nM and 2500 nM and 2800 nM in the assay on HCT-116 colon; 232 nM and 360 nM and 1020 nM in the assay on A549 NSCLC; 55.3 nM and 57.4 nM and 141 nM in the assay with IGROV1 ovarian; 323 nM and 2180 nM in the assay on SK-MEL-5 melanoma. Moreover, the TGI in the assay on MALME-3M melanoma is 53 nM and 240 nM and 54 nM.
Regarding `CCCCCCCCCCC(O)C1CCC(C(O)CCC(O)C2CCC(CCCCCCC[C@H](O)CC3=C[C@@H](C)OC3=O)O2)O1` (some centres undefined), the TGI with 786-0 renal is 53900 nM; with SK-MEL-28 melanoma, greater than 100000 nM; in the assay on HCT-116 colon it was greater than 53400 nM; in the assay on SF-268 CNS, greater than 100000 nM; in the assay on A549 NSCLC, greater than 100000 nM; in the assay on IGROV1 ovarian, greater than 100000 nM. The TGI is greater than 64300 nM with SK-MEL-5 melanoma, greater than 100000 nM in the assay on SR leukemia, greater than 100000 nM in the assay on OVCAR-4 ovarian and greater than 100000 nM in the assay on MALME-3M melanoma. Moreover, the GI50 in the assay on HCT-116 colon is 3480 nM; in the assay with A549 NSCLC, 8660 nM; with SK-MEL-5 melanoma, 5970 nM.
In the case of `COc1ccc2c(CN3CCC[C@H]3C(=O)O)cc3cc4c(cc3c2c1)OCO4`, the GI50 is 16200 nM with 786-0 renal; 15500 nM in the assay with SK-MEL-28 melanoma; 4800 nM with HCT-116 colon; 9870 nM in the assay on SF-268 CNS; 21500 nM in the assay on A549 NSCLC; 25400 nM with IGROV1 ovarian. Moreover, the GI50 with SK-MEL-5 melanoma is 12200 nM; in the assay with SR leukemia it was 6230 nM; in the assay on OVCAR-4 ovarian it was 19200 nM; with MALME-3M melanoma, 2590 nM. Also, the TGI with 786-0 renal is greater than 100000 nM; in the assay on SK-MEL-28 melanoma, 36800 nM; with HCT-116 colon, greater than 100000 nM; in the assay on SF-268 CNS, 67100 nM; in the assay with A549 NSCLC it was greater than 100000 nM; in the assay with IGROV1 ovarian it was greater than 100000 nM. For the same molecule, the TGI is 34200 nM in the assay with SK-MEL-5 melanoma, greater than 100000 nM in the assay with SR leukemia, 61400 nM in the assay with OVCAR-4 ovarian and 17700 nM in the assay with MALME-3M melanoma.
Regarding `Cc1cc2cc3c(C)cc(=O)oc3c(C)c2o1`, the TGI in the assay on 786-0 renal, with SK-MEL-28 melanoma, in the assay with HCT-116 colon, in the assay with SF-268 CNS, with A549 NSCLC and in the assay on IGROV1 ovarian was greater than 100000 nM in each case. The TGI in the assay with SK-MEL-5 melanoma, with SR leukemia, in the assay on OVCAR-4 ovarian and in the assay on MALME-3M melanoma was greater than 100000 nM each time.
On to `C=C[C@H]1CCC/C=C/[C@@H]2C[C@H](O)C[C@H]2[C@H](O)/C=C/C(=O)O1`, for which the GI50 in the assay on 786-0 renal was 18.4 nM; in the assay on SK-MEL-28 melanoma it was 21.3 nM; in the assay with HCT-116 colon, 23.8 nM; in the assay on SF-268 CNS, 38 nM; in the assay on A549 NSCLC, 41.5 nM; with IGROV1 ovarian, 65.5 nM. Also, the GI50 is less than 12.9 nM with SK-MEL-5 melanoma, 31.9 nM with SR leukemia, 30.3 nM in the assay on OVCAR-4 ovarian and 34 nM in the assay with MALME-3M melanoma. The TGI in the assay with 786-0 renal was 37.7 nM; with SK-MEL-28 melanoma, 404 nM; in the assay on HCT-116 colon it was 57.6 nM; in the assay on SF-268 CNS it was greater than 100000 nM; in the assay on A549 NSCLC, greater than 100000 nM; in the assay on IGROV1 ovarian, greater than 100000 nM. For the same molecule, the figures for the TGI in the assay on SK-MEL-5 melanoma, with OVCAR-4 ovarian and in the assay on MALME-3M melanoma were 23.8 nM, greater than 100000 nM and 1890 nM, respectively.
As for `COc1c(Cl)c2c(c(OC)c1OC)-c1ccc(SC)c(=O)cc1[C@@H](NC(=O)OCC(F)(F)F)CC2`, the GI50 in the assay with 786-0 renal is less than 10 nM; with SK-MEL-28 melanoma, 5990 nM; in the assay with HCT-116 colon it was less than 10 nM; with SF-268 CNS, less than 10.5 nM; in the assay on A549 NSCLC, less than 10 nM; with IGROV1 ovarian, less than 10 nM. The GI50 in the assay on SK-MEL-5 melanoma is less than 10 nM; in the assay with SR leukemia, less than 10 nM; with OVCAR-4 ovarian, 88.9 nM; in the assay on MALME-3M melanoma, less than 10.4 nM. Besides, the TGI is greater than 30400 nM in the assay on 786-0 renal; greater than 100000 nM in the assay with SK-MEL-28 melanoma; 218 nM in the assay with HCT-116 colon; greater than 90500 nM with SF-268 CNS; greater than 100000 nM in the assay with A549 NSCLC; greater than 100000 nM in the assay on IGROV1 ovarian. The TGI with SK-MEL-5 melanoma was 18.4 nM; in the assay on SR leukemia it was 17900 nM; in the assay with OVCAR-4 ovarian, greater than 100000 nM; in the assay with MALME-3M melanoma, 42600 nM.
Turning to `C=C(C)CN(CC#N)CC(=C)C`, the TGI in the assay with 786-0 renal, in the assay with SK-MEL-28 melanoma, in the assay with HCT-116 colon, with SF-268 CNS, with A549 NSCLC and with IGROV1 ovarian was greater than 100000 nM in each case. The TGI in the assay with SK-MEL-5 melanoma, in the assay on SR leukemia, in the assay on OVCAR-4 ovarian and in the assay on MALME-3M melanoma was greater than 100000 nM in each case.
As for `O=c1ccnc2c1ccc1[nH]cccc12`, the TGI in the assay on 786-0 renal, with SK-MEL-28 melanoma, with HCT-116 colon, in the assay on SF-268 CNS, in the assay with A549 NSCLC and in the assay with IGROV1 ovarian was greater than 100000 nM throughout. Further, the TGI with SK-MEL-5 melanoma, in the assay on SR leukemia, in the assay with OVCAR-4 ovarian and in the assay with MALME-3M melanoma was greater than 100000 nM each time.
